Source: patent publication US9957268B2, “1H-pyrrolo[2,3,c]pyridin-7(6H)-ones and pyrazolo[3,4-c]pyridin-7(6H)-ones as inhibitors of BET proteins” (Incyte Corporation, priority 2014, dated 2018)

Columns and labels:
[1] = molecular target: BRD4-BD1 (Homo sapiens (Human), UniProt O60885); assay: BRD4 AlphaScreen assay (BRD4-BD1); format: binding; conditions: biotin-labeled tetra-acetylated histone H4 peptide
Procedure: (§1) BRD4-BD1 and BRD4-BD2 assays were conducted in white 384-well polystyrene plate in a final volume of 40 μL for BD1 and 60 μL for BD2. Inhibitors were first serially diluted in DMSO and added to the plate wells before the addition of other reaction components. The final concentration of DMSO in the assay was 1.25% (BD1) and 0.83% (BD2). The assays were carried out at room temperature in the assay buffer (50 mM Tris-HCl, pH 7.5, 0.01% Tween-20, 0.01% BSA, 5 mM DTT), containing 50 nM Biotin-labeled tetra-acetylated histone H4 peptide (H4Ac4) and BRD4-BD1 or BRD4-BD2 protein at concentration less than 1 nM. The incubation for 75 min. was followed by the addition of 20 μL of assay buffer supplemented with Streptavidin donor beads (PerkinElmer 6760002) and GSH Acceptor beads (PerkinElmer-AL109C) at final concentration 2-4 μg/mL under reduced light. After plate sealing, the plate was incubated in the dark at room temperature for 75 min. before reading on a PHERAstar FS plate reader (BMG Labtech). IC50 determination was performed by fitting the curve of percent control activity versus the log of the inhibitor concentration using the GraphPad Prism 5.0 software.

[2] = molecular target: BRD4-BD2 (Homo sapiens (Human), UniProt O60885); assay: BRD4 AlphaScreen assay (BRD4-BD2); format: binding; conditions: biotin-labeled tetra-acetylated histone H4 peptide
Procedure: as §1

IC50 [1] [µM] | IC50 [2] [µM] | SMILES
0.1 to 1 | ≤ 0.1 | CC(C)C1Oc2c(cc(C#N)cc2-c2cn(C)c(=O)c3[nH]ccc23)NC1=O (stereo not drawn) [Example 17, 2-isopropyl-8-(6-methyl-7-oxo-6,7-dihydro-1H-pyrrolo[2,3-c]pyridin-4-yl)-3-oxo-3,4-dihydro-2H-1,4-benzoxazine-6-carbonitrile]
≤ 0.1 | ≤ 0.1 | CC(C)C1Oc2c(-c3cn(C)c(=O)c4[nH]ccc34)cc(S(C)(=O)=O)cc2N(C)C1=O (stereo not drawn) [Example 47, 2-isopropyl-4-methyl-8-(6-methyl-7-oxo-6,7-dihydro-1H-pyrrolo[2,3-c]pyridin-4-yl)-6-(methylsulfonyl)-2H-1,4-benzoxazin-3(4H)-one]
≤ 0.1 | ≤ 0.1 | Cn1cc(-c2cccc3c2OC2(CC2)C(=O)N3)c2cc[nH]c2c1=O [Example 30, 8-(6-methyl-7-oxo-6,7-dihydro-1H-pyrrolo[2,3-c]pyridin-4-yl)spiro[1,4-benzoxazine-2,1′-cyclopropan]-3(4H)-one]
≤ 0.1 | ≤ 0.1 | CC(C)C1Oc2c(cc(CO)cc2-c2cn(C)c(=O)c3[nH]ccc23)NC1=O (stereo not drawn) [Example 36, 6-(hydroxymethyl)-2-isopropyl-8-(6-methyl-7-oxo-6,7-dihydro-1H-pyrrolo[2,3-c]pyridin-4-yl)-2H-1,4-benzoxazin-3(4H)-one]
≤ 0.1 | ≤ 0.1 | Cn1cc(-c2cc(S(C)(=O)=O)cc3c2NC2(CCCC2)C(=O)N3)c2cc[nH]c2c1=O [Example 59, 8′-(6-methyl-7-oxo-6,7-dihydro-1H-pyrrolo[2,3-c]pyridin-4-yl)-6′-(methylsulfonyl)-1′,4′-dihydro-3′H-spiro[cyclopentane-1,2′-quinoxalin]-3′-one]
≤ 0.1 | ≤ 0.1 | Cn1cc(-c2cc(S(C)(=O)=O)cc3c2NC(C)(C)C(=O)N3)c2cc[nH]c2c1=O [Example 58, 3,3-dimethyl-5-(6-methyl-7-oxo-6,7-dihydro-1H-pyrrolo[2,3-c]pyridin-4-yl)-7-(methylsulfonyl)-3,4-dihydroquinoxalin-2(1H)-one]
0.1 to 1 | ≤ 0.1 | CC(C)C1Oc2c(cc(-c3ccco3)cc2-c2cn(C)c(=O)c3[nH]ccc23)NC1=O (stereo not drawn) [Example 43, 6-(2-furyl)-2-isopropyl-8-(6-methyl-7-oxo-6,7-dihydro-1H-pyrrolo[2,3-c]pyridin-4-yl)-2H-1,4-benzoxazin-3(4H)-one]
≤ 0.1 | ≤ 0.1 | COc1cc(-c2cn(C)c(=O)c3[nH]ccc23)c2c(c1)N(Cc1ccncc1)C(=O)C(C(C)C)O2 (stereo not drawn) [Example 15, 2-isopropyl-6-methoxy-8-(6-methyl-7-oxo-6,7-dihydro-1H-pyrrolo[2,3-c]pyridin-4-yl)-4-(pyridin-4-ylmethyl)-2H-1,4-benzoxazin-3(4H)-one]
≤ 0.1 | ≤ 0.1 | CC(C)C1Oc2c(-c3cn(C)c(=O)c4[nH]ccc34)cc(S(=O)(=O)C(C)C)cc2N(C)C1=O (stereo not drawn) [Example 56, 2-isopropyl-6-(isopropylsulfonyl)-4-methyl-8-(6-methyl-7-oxo-6,7-dihydro-1H-pyrrolo[2,3-c]pyridin-4-yl)-2H-1,4-benzoxazin-3(4H)-one]
≤ 0.1 | ≤ 0.1 | CC(O)c1cc2c(c(-c3cn(C)c(=O)c4[nH]ccc34)c1)OC(C(C)C)C(=O)N2 (stereo not drawn) [Example 50, 6-(1-hydroxyethyl)-2-isopropyl-8-(6-methyl-7-oxo-6,7-dihydro-1H-pyrrolo[2,3-c]pyridin-4-yl)-2H-1,4-benzoxazin-3(4H)-one]
≤ 0.1 | ≤ 0.1 | Cn1cc(-c2cc(S(C)(=O)=O)cc3c2OC(C)(C)C(=O)N3)c2cc[nH]c2c1=O [Example 45, 2,2-dimethyl-8-(6-methyl-7-oxo-6,7-dihydro-1H-pyrrolo[2,3-c]pyridin-4-yl)-6-(methylsulfonyl)-2H-1,4-benzoxazin-3(4H)-one]
≤ 0.1 | ≤ 0.1 | CC(C)C1Oc2c(-c3cn(C)c(=O)c4[nH]ccc34)cc(S(=O)(=O)N(C)C)cc2N(C)C1=O (stereo not drawn) [Example 71, 2-isopropyl-N,N,4-trimethyl-8-(6-methyl-7-oxo-6,7-dihydro-1H-pyrrolo[2,3-c]pyridin-4-yl)-3-oxo-3,4-dihydro-2H-1,4-benzoxazine-6-sulfonamide]
≤ 0.1 | ≤ 0.1 | CC(C)S(=O)(=O)c1cc2c(c(-c3cn(C)c(=O)c4[nH]ccc34)c1)OC(C)(C)C(=O)N2 [Example 79, 6-(isopropylsulfonyl)-2,2-dimethyl-8-(6-methyl-7-oxo-6,7-dihydro-1H-pyrrolo[2,3-c]pyridin-4-yl)-2H-1,4-benzoxazin-3(4H)-one]
≤ 0.1 | ≤ 0.1 | Cn1cc(-c2cc(S(C)(=O)=O)cc3c2OC(CCO)C(=O)N3)c2cc[nH]c2c1=O (stereo not drawn) [Example 48, 2-(2-hydroxyethyl)-8-(6-methyl-7-oxo-6,7-dihydro-1H-pyrrolo[2,3-c]pyridin-4-yl)-6-(methylsulfonyl)-2H-1,4-benzoxazin-3(4H)-one]
≤ 0.1 | ≤ 0.1 | COc1cc2c(c(-c3cn(C)c(=O)c4[nH]ccc34)c1)OC(C1CC1)C(=O)N2 (stereo not drawn) [Example 23, 2-cyclopropyl-6-methoxy-8-(6-methyl-7-oxo-6,7-dihydro-1H-pyrrolo[2,3-c]pyridin-4-yl)-2H-1,4-benzoxazin-3(4H)-one]
≤ 0.1 | ≤ 0.1 | CC(C)C1Oc2c(cc(C(=O)N(C)C)cc2-c2cn(C)c(=O)c3[nH]ccc23)NC1=O (stereo not drawn) [Example 34, 2-isopropyl-N,N-dimethyl-8-(6-methyl-7-oxo-6,7-dihydro-1H-pyrrolo[2,3-c]pyridin-4-yl)-3-oxo-3,4-dihydro-2H-1,4-benzoxazine-6-carboxamide]
≤ 0.1 | ≤ 0.1 | COc1cc2c(c(-c3cn(C)c(=O)c4[nH]ncc34)c1)OC(C)(C)C(=O)N2 [Example 29, 6-methoxy-2,2-dimethyl-8-(6-methyl-7-oxo-6,7-dihydro-1H-pyrazolo[3,4-c]pyridin-4-yl)-2H-1,4-benzoxazin-3(4H)-one]
≤ 0.1 | ≤ 0.1 | CN1C(=O)C(C)(C)Oc2c(-c3cn(C)c(=O)c4[nH]ccc34)cc(S(=O)(=O)N3CCCCC3)cc21 [Example 73, 2,2,4-trimethyl-8-(6-methyl-7-oxo-6,7-dihydro-1H-pyrrolo[2,3-c]pyridin-4-yl)-6-(piperidin-1-ylsulfonyl)-2H-1,4-benzoxazin-3(4H)-one]
0.1 to 1 | ≤ 0.1 | CCC1Oc2c(-c3cn(C)c(=O)c4[nH]ccc34)cccc2N(C)C1=O (stereo not drawn) [Example 8, 2-ethyl-4-methyl-8-(6-methyl-7-oxo-6,7-dihydro-1H-pyrrolo[2,3-c]pyridin-4-yl)-2H-1,4-benzoxazin-3(4H)-one]
≤ 0.1 | ≤ 0.1 | CC(C)C1Oc2c(cc(C(=O)N3CCOCC3)cc2-c2cn(C)c(=O)c3[nH]ccc23)NC1=O (stereo not drawn) [Example 33, 2-isopropyl-8-(6-methyl-7-oxo-6,7-dihydro-1H-pyrrolo[2,3-c]pyridin-4-yl)-6-(morpholin-4-ylcarbonyl)-2H-1,4-benzoxazin-3(4H)-one]
0.1 to 1 | ≤ 0.1 | COc1cc(-c2cn(C)c(=O)c3[nH]ccc23)c2c(c1)N(C)CC(C(C)C)O2 (stereo not drawn) [Example 22, 4-(2-isopropyl-6-methoxy-4-methyl-3,4-dihydro-2H-1,4-benzoxazin-8-yl)-6-methyl-1,6-dihydro-7H-pyrrolo[2,3-c]pyridin-7-one]
≤ 0.1 | ≤ 0.1 | CN1C(=O)C2(CC2)Oc2c(-c3cn(C)c(=O)c4[nH]ncc34)cc(S(C)(=O)=O)cc21 [Example 66, 4-methyl-8-(6-methyl-7-oxo-6,7-dihydro-1H-pyrazolo[3,4-c]pyridin-4-yl)-6-(methylsulfonyl)spiro[1,4-benzoxazine-2,1′-cyclopropan]-3(4H)-one]
≤ 0.1 | – | COc1cc2c(c(-c3cn(C)c(=O)c4[nH]ccc34)c1)OC(C(C)C)C(=O)N2 (stereo not drawn) [Example 9, 2-isopropyl-6-methoxy-8-(6-methyl-7-oxo-6,7-dihydro-1H-pyrrolo[2,3-c]pyridin-4-yl)-2H-1,4-benzoxazin-3(4H)-one]
≤ 0.1 | – | COc1cc2c(c(-c3cn(C)c(=O)c4[nH]ccc34)c1)OC(C1CCCC1)C(=O)N2 (stereo not drawn) [Example 35, 2-cyclopentyl-6-methoxy-8-(6-methyl-7-oxo-6,7-dihydro-1H-pyrrolo[2,3-c]pyridin-4-yl)-2H-1,4-benzoxazin-3(4H)-one]

SMILES | IC50 [1] [µM] | IC50 [2] [µM]
CC(C)C1Oc2c(cc(S(C)(=O)=O)cc2-c2cn(C)c(=O)c3[nH]ccc23)NC1=O (single isomer, unassigned) [Example 44A, 2-isopropyl-8-(6-methyl-7-oxo-6,7-dihydro-1H-pyrrolo[2,3-c]pyridin-4-yl)-6-(methylsulfonyl)-2H-1,4-benzoxazin-3(4H)-one] | ≤ 0.1 | ≤ 0.1
COc1cc2c(c(-c3cn(C)c(=O)c4[nH]ncc34)c1)OC(C1CCCC1)C(=O)N2 (single isomer, unassigned) [Example 42B, 2-cyclopentyl-6-methoxy-8-(6-methyl-7-oxo-6,7-dihydro-1H-pyrazolo[3,4-c]pyridin-4-yl)-2H-1,4-benzoxazin-3(4H)-one] | – | ≤ 0.1
